The target of experiment [1] is T1, CAIX-expressing human HT-29 colorectal cancer cells (Homo sapiens, UniProt Q16790).
T1 construct: CAIX-expressing human HT-29 colorectal cancer cells; host or cells: HT-29 human colorectal cancer cells
As to the kind of experiment: FACS binding assay (IC50 determination, competition with tracer 3BP-2776 or 3BP-4149). As to conditions: FACS competition on HT-29 cells, Tracer ID 3BP-2776 (10 nM, biotin-labeled), 4° C., 1 hour; read-out: pIC50 category (activity) (converted). An outline of the steps: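 HT-29 cells in FACS buffer (PBS, 1% FCS) at 500.000 cells/ml were exposed to compounds competing with a labelled tracer, with biotinylated compounds detected by 1 μg/mL APC-streptavidin for 30 min on ice. APC/Cy5 median fluorescence was read by flow cytometry and IC50 derived by 4PL fit.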
In general terms: Flow cytometry measures light scatter and fluorescence of single cells or particles in a stream.

For experiment [2], the target named is T2, human carbonic anhydrase IX (hCAIX-Fc) (Homo sapiens, UniProt Q16790).
T2 construct: purchased SinoBliological (Sino Biological) 10107-H02H
As to the kind of experiment: Surface plasmon resonance assay with hCAIX-Fc. It counts as binding. As to conditions: 25° C.; for Kd: SPR, hCAIX-Fc captured, read-out: pKD category (activity) (converted); for t1/2 category (activity): SPR dissociation half-life, hCAIX-Fc. As to the method:
Surface plasmon resonance (SPR) studies were performed using a Biacore™ T200 SPR system (GE Healthcare Life Sciences). Briefly, polarized light is directed towards a gold-labeled sensor surface, and minimum intensity reflected light is detected. The angle of reflected light changes as molecules bind and dissociate.
Fc-fusion protein of human carbonic anhydrase IX (hCAIX-Fc, SinoBliological, Cat #10107-H02H) was captured on a Fc-capture chip (Biacore™ CM5 sensor chip coated with ˜300 RU of an Fc-binding peptide). Recombinant carbonic anydrase was diluted in Running Buffer (PBST, 0.1% DMSO) to a final concentration 100 or 200 nM and than flushed over the Fc-capture chip to immobilized ˜1000 RUs.
Stock solutions of test compounds were prepared by dissolving each compound in DMSO. DMSO stock solution were diluted 1:1000 in Running Buffer without DMSO. Further sequencial dilutions were made with Running Buffer containing 0.1% DMSO. SPR binding analyses were performed in Single Cycle Kinetic (SCK) mode at 25° C. Flow cell coated with the Fc-binding peptide only served as reference flowcell. After each SCK run, carbonic andydrase IX was removed with 10 mM glycine buffer, pH 1.5.
In between every three SCK measurements, a blank run with Running Buffer instead of test compound was included to correct for baseline drifts (double blanking methods).
Table 11 describes the protocol steps for Fc-fusion target capturing and assessment of the binding kinetics.
For each test compound, SPR raw data in the form of resonance units (RU) were plotted as sensorgrams using the Biacore™ T200 control software. The signal from the blank sensorgram was subtracted from that of the test compound sensorgram (blank corrected). The blank corrected sensorgram was corrected for baseline drift by subtracting the sensorgram of a SCK run without the test compound (running buffer only). The association rate (kon), dissociation rate (koff), dissociation constant (KD), and t1/2 were calculated from Blank-normalized SPR data using the 1:1 Langmuir binding model from the Biacore™ T200 evaluation software. Raw data and fit results were imported as text files in IDBS. The pKD value (negative decadic logarithm of dissociation constant) was calculated in the IDBS excel template.
In general terms: In SPR one partner is held on a chip, and binding of the other changes the refractive index at the surface.

Structures are written as SMILES. Starred links: 1 amine or outer side, 2 acyl side, 3 side chain; linkers in the order of their positions; H or OH if unused. Positions of bridges follow the written chain, without caps; N, C: chain ends. Non-standard residues stand in square brackets, D forms with d. Residues, ends and D or L forms follow the SMILES beside them. *: point of attachment. DOTA = O=C(O)CN1CCN(CC(=O)O)CCN(CC(=O)*)CCN(CC(=O)O)CC1; Trp(5-Cl) = N[C@@H](Cc1c[nH]c2ccc(Cl)cc12)C(=O)O; mXylylene = c1cc(C[*:1])cc(C[*:2])c1; Bta = N[C@@H](Cc1csc2ccccc12)C(=O)O; Trx = NC[C@H]1CC[C@H](C(=O)O)CC1; X2 = O=C(CN1CCC(N[*:1])CC1)[*:2]; dPip = O=C(O)[C@H]1CCCCN1; Ac5c = NC1(C(=O)O)CCCC1; AEEA = NCCOCCOCC(=O)O; Sar = CNCC(=O)O

Consider `CC(=O)N[C@H](C(=O)N[C@@H](Cc1ccc(O)cc1)C(=O)N[C@H]1CSCc2cccc(c2)CSC[C@@H](C(N)=O)NC(=O)[C@H](C)NC(=O)[C@H](Cc2c[nH]c3ccccc23)NC(=O)[C@H]([C@@H](C)O)NC(=O)[C@H](CC(C)C)NC(=O)[C@H](Cc2c[nH]c3ccccc23)NC(=O)[C@H](CC(=O)O)NC(=O)[C@H]2CCCCN2C(=O)[C@H](CCC(=O)O)NC1=O)C(C)C` [3BP-3283] (Ac-VYCE[dPip]DWLTWAC-NH2; linker 3-12 via mXylylene), for which the IC50 in experiment [1] was less than 10 nM. The Kd in experiment [2] was less than 10 nM.
For the molecule `CC(=O)N[C@H](C(=O)N[C@@H](Cc1ccc(O)cc1)C(=O)N[C@H]1CSCc2cccc(c2)CSC[C@@H](C(N)=O)NC(=O)[C@H](CCC(N)=O)NC(=O)[C@H](Cc2c[nH]c3ccccc23)NC(=O)[C@H]([C@@H](C)O)NC(=O)[C@H](CC(C)C)NC(=O)[C@H](Cc2c[nH]c3ccc(Cl)cc23)NC(=O)[C@H](CC(=O)O)NC(=O)CN(C)C(=O)[C@H](CCC(=O)O)NC1=O)C(C)C` [3BP-3289] (Ac-VYCE[Sar]D[Trp(5-Cl)]LTWQC-NH2; linker 3-12 via mXylylene), in experiment [1], the IC50 was less than 10 nM. Moreover, in experiment [2], the “t1/2 category (activity)” value is “B (t1/2 between 5.1 and 15.0 minutes)”; the Kd was less than 10 nM.
Turning to `CC(=O)N[C@H](C(=O)N[C@@H](Cc1ccc(O)cc1)C(=O)N[C@H]1CSCc2cccc(c2)CSC[C@@H](C(N)=O)NC(=O)[C@H](CCC(N)=O)NC(=O)[C@H](Cc2c[nH]c3ccccc23)NC(=O)[C@H]([C@@H](C)O)NC(=O)[C@H](CC(C)C)NC(=O)[C@H](Cc2csc3ccccc23)NC(=O)[C@H](CC(=O)O)NC(=O)CN(C)C(=O)[C@H](CCC(=O)O)NC1=O)C(C)C` [3BP-3311] (Ac-VYCE[Sar]D[Bta]LTWQC-NH2; linker 3-12 via mXylylene), the IC50 in experiment [1] was less than 10 nM. Moreover, in experiment [2], the “t1/2 category (activity)” value is “C (t1/2 between 2.1 and 5.0 minutes)”; the Kd is less than 10 nM.
Turning to `CC(=O)N[C@H](C(=O)N[C@@H](Cc1ccc(O)cc1)C(=O)N[C@H]1CSCc2cccc(c2)CSC[C@@H](C(N)=O)NC(=O)[C@H](C)NC(=O)[C@H](Cc2c[nH]c3ccccc23)NC(=O)[C@H]([C@@H](C)O)NC(=O)[C@H](CC(C)C)NC(=O)[C@H](Cc2c[nH]c3ccccc23)NC(=O)[C@H](CC(=O)O)NC(=O)CN(C)C(=O)[C@H](CCC(=O)O)NC1=O)C(C)C` [3BP-3313] (Ac-VYCE[Sar]DWLTWAC-NH2; linker 3-12 via mXylylene), the IC50 in experiment [1] was less than 10 nM. Besides, in experiment [2], the “t1/2 category (activity)” value was “C (t1/2 between 2.1 and 5.0 minutes)”; the Kd was less than 10 nM.
As for `CC(=O)N[C@H](C(=O)N[C@@H](Cc1ccc(O)cc1)C(=O)N[C@H]1CSCc2cccc(c2)CSC[C@@H](C(N)=O)NC(=O)[C@H](CO)NC(=O)[C@H](Cc2c[nH]c3ccccc23)NC(=O)[C@H]([C@@H](C)O)NC(=O)[C@H](CC(C)C)NC(=O)[C@H](Cc2c[nH]c3ccccc23)NC(=O)[C@H](CC(=O)O)NC(=O)[C@H]2CCCN2C(=O)[C@H](CCC(=O)O)NC1=O)C(C)C` [3BP-3565] (Ac-VYCE[dP]DWLTWSC-NH2; linker 3-12 via mXylylene), the IC50 in experiment [1] is less than 10 nM. Moreover, in experiment [2], the “t1/2 category (activity)” value is reported as “A (t1/2>15.0 minutes)” and the Kd is less than 10 nM.
On to `CC(C)[C@H](NC(=O)CN1CCC(NC(=O)CN2CCN(CC(=O)O)CCN(CC(=O)O)CCN(CC(=O)O)CC2)CC1)C(=O)N[C@@H](Cc1ccc(O)cc1)C(=O)N[C@H]1CSCc2cccc(c2)CSC[C@@H](C(N)=O)NC(=O)[C@H](CO)NC(=O)[C@H](Cc2c[nH]c3ccccc23)NC(=O)[C@H]([C@@H](C)O)NC(=O)C2(CCCC2)NC(=O)[C@H](Cc2c[nH]c3ccccc23)NC(=O)[C@H](CC(=O)O)NC(=O)[C@H]2CCCN2C(=O)[C@H](CCC(=O)O)NC1=O` [3BP-3587] ({DOTA}-[X2]VYCE[dP]DW[Ac5c]TWSC-NH2; linker 4-13 via mXylylene), for which, in experiment [1], the IC50 is less than 10 nM. Further, in experiment [2], the “t1/2 category (activity)” value was “C (t1/2 between 2.1 and 5.0 minutes)”; the Kd is less than 10 nM.
As to `CC(C)C[C@@H]1NC(=O)[C@H](Cc2c[nH]c3ccccc23)NC(=O)[C@H](CC(=O)O)NC(=O)[C@H]2CCCN2C(=O)[C@H](CCC(=O)O)NC(=O)[C@@H](NC(=O)CN2CCC(NC(=O)CN3CCN(CC(=O)O)CCN(CC(=O)O)CCN(CC(=O)O)CC3)CC2)CSCc2cccc(c2)CSC[C@@H](C(N)=O)NC(=O)[C@H](CO)NC(=O)[C@H](Cc2c[nH]c3ccccc23)NC(=O)[C@H]([C@@H](C)O)NC1=O` [3BP-3858] ({DOTA}-[X2]CE[dP]DWLTWSC-NH2; linker 2-11 via mXylylene), the IC50 in experiment [1] was less than 10 nM. Also, in experiment [2], the “t1/2 category (activity)” value was “D (t1/2≤2.0 minutes)” and the Kd was less than 10 nM.
In the case of `CC(C)C[C@@H]1NC(=O)[C@H](Cc2c[nH]c3ccccc23)NC(=O)[C@H](CC(=O)O)NC(=O)[C@H]2CCCN2C(=O)[C@H](CCC(=O)O)NC(=O)[C@@H](NC(=O)[C@H](Cc2ccc(O)cc2)NC(=O)CN2CCC(NC(=O)CN3CCN(CC(=O)O)CCN(CC(=O)O)CCN(CC(=O)O)CC3)CC2)CSCc2cccc(c2)CSC[C@@H](C(N)=O)NC(=O)[C@H](CO)NC(=O)[C@H](Cc2c[nH]c3ccccc23)NC(=O)[C@H]([C@@H](C)O)NC1=O` [3BP-3867] ({DOTA}-[X2]YCE[dP]DWLTWSC-NH2; linker 3-12 via mXylylene), the IC50 in experiment [1] is less than 10 nM. In experiment [2], the “t1/2 category (activity)” value is “C (t1/2 between 2.1 and 5.0 minutes)”; the Kd is less than 10 nM.
On to `CC(C)C[C@@H]1NC(=O)[C@H](Cc2c[nH]c3ccccc23)NC(=O)[C@H](CC(=O)O)NC(=O)[C@H]2CCCN2C(=O)[C@H](CCC(=O)O)NC(=O)[C@@H](NC(=O)[C@H](Cc2ccc(O)cc2)NC(=O)[C@H]2CC[C@H](CNC(=O)CN3CCN(CC(=O)O)CCN(CC(=O)O)CCN(CC(=O)O)CC3)CC2)CSCc2cccc(c2)CSC[C@@H](C(N)=O)NC(=O)[C@H](CO)NC(=O)[C@H](Cc2c[nH]c3ccccc23)NC(=O)[C@H]([C@@H](C)O)NC1=O` [3BP-3868] ({DOTA-Trx}-YCE[dP]DWLTWSC-NH2; linker 2-11 via mXylylene), for which the IC50 in experiment [1] is less than 10 nM. In addition, in experiment [2], the “t1/2 category (activity)” value was “B (t1/2 between 5.1 and 15.0 minutes)”; the Kd was less than 10 nM.
Consider `CC(C)C[C@@H]1NC(=O)[C@H](Cc2c[nH]c3ccccc23)NC(=O)[C@H](CC(=O)O)NC(=O)[C@H]2CCCN2C(=O)[C@H](CCC(=O)O)NC(=O)[C@@H](NC(=O)[C@H](Cc2ccc(O)cc2)NC(=O)COCCOCCNC(=O)CN2CCN(CC(=O)O)CCN(CC(=O)O)CCN(CC(=O)O)CC2)CSCc2cccc(c2)CSC[C@@H](C(N)=O)NC(=O)[C@H](CO)NC(=O)[C@H](Cc2c[nH]c3ccccc23)NC(=O)[C@H]([C@@H](C)O)NC1=O` [3BP-3869] ({DOTA-AEEA}-YCE[dP]DWLTWSC-NH2; linker 2-11 via mXylylene), for which, in experiment [1], the IC50 was less than 10 nM. In addition, in experiment [2], the “t1/2 category (activity)” value was “C (t1/2 between 2.1 and 5.0 minutes)”; the Kd is 10 to 79.4 nM.
